Tests used:
[1] = target: T1, isolated kinase domain of the human FLT3 receptor (a.a. 571-993) (Homo sapiens, UniProt P36888); assay: FLT3 Fluorescence Polarization Kinase Assay; format: biochemical; details: 10 nM FLT3 571-993, 150 uM ATP; uncertainty ±10%
T1 construct: isolated kinase domain of the human FLT3 receptor (a.a. 571-993)
T1 sequence (P36888 571-993): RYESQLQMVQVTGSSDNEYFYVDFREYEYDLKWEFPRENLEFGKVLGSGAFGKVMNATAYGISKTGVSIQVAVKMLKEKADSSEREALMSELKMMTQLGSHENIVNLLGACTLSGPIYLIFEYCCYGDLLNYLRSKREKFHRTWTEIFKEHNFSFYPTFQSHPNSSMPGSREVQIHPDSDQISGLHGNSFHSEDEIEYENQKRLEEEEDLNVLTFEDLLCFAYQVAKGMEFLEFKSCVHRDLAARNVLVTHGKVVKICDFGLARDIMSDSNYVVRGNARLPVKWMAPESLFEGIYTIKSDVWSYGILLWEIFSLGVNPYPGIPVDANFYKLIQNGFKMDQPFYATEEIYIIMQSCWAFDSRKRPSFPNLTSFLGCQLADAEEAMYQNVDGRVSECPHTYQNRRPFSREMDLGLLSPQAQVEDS
Method: FLT3 Fluorescence Polarization Kinase Assay
To determine the activity of the FLT3 inhibitors of Formula I′ in an in vitro kinase assay, inhibition of the isolated kinase domain of the human FLT3 receptor (a.a. 571-993) was performed using the following fluorescence polarization (FP) protocol. The FLT3 FP assay utilizes the fluorescein-labeled phosphopeptide and the anti-phosphotyrosine antibody included in the Panvera Phospho-Tyrosine Kinase Kit (Green) supplied by Invitrogen. When FLT3 phosphorylates polyGlu4Tyr, the fluorescein-labeled phosphopeptide is displaced from the anti-phosphotyrosine antibody by the phosphorylated poly Glu4Tyr, thus decreasing the FP value. The FLT3 kinase reaction is incubated at room temperature for 30 minutes under the following conditions: 10 nM FLT3 571-993, 20 ug/mL poly Glu4Tyr, 150 uM ATP, 5 mM MgCl2, 1% compound in DMSO. The kinase reaction is stopped with the addition of EDTA. The fluorescein-labeled phosphopeptide and the anti-phosphotyrosine antibody are added and incubated for 30 minutes at room temperature.
All data points are an average of triplicate samples. Inhibition and IC50 data analysis was done with GraphPad Prism using a non-linear regression fit with a multiparamater, sigmoidal dose-response (variable slope) equation.

[2] = tested on: MV4-11 cells; assay: Inhibition of MV4-11 cell proliferation (CellTiterGlo, 72 hours); format: cell-based; details: Homo sapiens; 72 hours growth; uncertainty ±20%
Method: Inhibition Of MV4-11 and Baf3 Cell Proliferation
To assess the cellular potency of the FLT3 inhibitors of Formula I′, FLT3 specific growth inhibition was measured in the leukemic cell line MV4-11 (ATCC Number: CRL-9591). […] MV4-11 cells cannot grow and survive without active FLT3ITD.
To measure proliferation inhibition by test compounds, the luciferase based CellTiterGlo reagent (Promega), which quantifies total cell number based on total cellular ATP concentration, was used. Cells are plated at 10,000 cells per well in 100 ul of in RPMI media containing penn/strep, 10% FBS and 1 ng/ml GM-CSF or 1 ng/ml IL-3 for MV4-11 and Baf3 cells respectively.
Compound dilutions or 0.1% DMSO (vehicle control) are added to cells and the cells are allowed to grow for 72 hours at standard cell growth conditions (37° C., 5% CO2). For activity measurements in MV4-11 cells grown in 50% plasma, cells were plated at 10,000 cells per well in a 1:1 mixture of growth media and human plasma (final volume of 100 μL). To measure total cell growth an equal volume of CellTiterGlo reagent was added to each well, according to the manufacturer's instructions, and luminescence was quantified. Total cell growth was quantified as the difference in luminescent counts (relative light units, RLU) of cell number at Day 0 compared to total cell number at Day 3 (72 hours of growth and/or compound treatment). One hundred percent inhibition of growth is defined as an RLU equivalent to the Day 0 reading. Zero percent inhibition was defined as the RLU signal for the DMSO vehicle control at Day 3 of growth. All data points are an average of triplicate samples. […] Inhibition and IC50 data analysis was done with GraphPad Prism using a non-linear regression fit with a multiparamater, sigmoidal dose-response (variable slope) equation.
MV4-11 cells express the FLT3 internal tandem duplication mutation, and thus are entirely dependent upon FLT3 activity for growth. […] In contrast, the Baf3 cell proliferation is driven by the cytokine IL-3 and thus are used as a non-specific toxicity control for test compounds.

CCNC(=O)NCCO/N=C/c1c(N)ncnc1N1CCC(NC(=O)Nc2ccc(C(C)C)cc2)C1 (stereo not shown) [Number 28, 1-[1-(6-Amino-5-{[2-(3-ethyl-ureido)-ethoxyimino]-methyl}-pyrimidin-4-yl)-pyrrolidin-3-yl]-3-(4-isopropyl-phenyl)-urea]
IC50 [1]: 2700 nM
IC50 [2]: 498 nM

CC(C)c1ccc(NC(=O)NC2CCN(c3ncnc(N)c3/C=N/OCC(=O)N3CCOCC3)C2)cc1 (stereo not shown) [Number 29, 1-(1-{6-Amino-5-[(2-morpholin-4-yl-2-oxo-ethoxyimino)-methyl]-pyrimidin-4-yl}-pyrrolidin-3-yl)-3-(4-isopropyl-phenyl)-urea]
IC50 [1]: 1200 nM
IC50 [2]: 856 nM
